Assay results: PubChem BioAssay (NCI)
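Each compound was tested at five concentrations against cells in 96-well plates for 48 hours. The concentration for full growth arrest is given as TGI.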

Legend:
Assay in all cases: DTP human tumour cell line panel, 48 h
M14 melanoma = system: M14 melanoma
MDA-N = system: MDA-N
NCI-H460 lung = system: NCI-H460 lung
RXF 393 renal = system: RXF 393 renal
BT-549 breast = system: BT-549 breast
NCI-H226 lung = system: NCI-H226 lung
OVCAR-8 ovarian = system: OVCAR-8 ovarian
OVCAR-5 ovarian = system: OVCAR-5 ovarian
NCI-H23 lung = system: NCI-H23 lung
MOLT-4 leukemia = system: MOLT-4 leukemia
HL-60(TB) leukemia = system: HL-60(TB) leukemia
SF-539 CNS = system: SF-539 CNS
SNB-19 CNS = system: SNB-19 CNS
SK-MEL-28 melanoma = system: SK-MEL-28 melanoma
HT29 colon = system: HT29 colon
MCF7 breast = system: MCF7 breast
MALME-3M melanoma = system: MALME-3M melanoma
U251 CNS = system: U251 CNS
TK-10 renal = system: TK-10 renal
UO-31 renal = system: UO-31 renal
SK-MEL-5 melanoma = system: SK-MEL-5 melanoma
CAKI-1 renal = system: CAKI-1 renal
IGROV1 ovarian = system: IGROV1 ovarian
A498 renal = system: A498 renal
OVCAR-3 ovarian = system: OVCAR-3 ovarian
SR leukemia = system: SR leukemia
CCRF-CEM leukemia = system: CCRF-CEM leukemia
PC-3 prostate = system: PC-3 prostate
MDA-MB-435 = system: MDA-MB-435
HCT-116 colon = system: HCT-116 colon
SNB-75 CNS = system: SNB-75 CNS
COLO 205 colon = system: COLO 205 colon
T-47D breast = system: T-47D breast
MDA-MB-231 breast = system: MDA-MB-231 breast
UACC-62 melanoma = system: UACC-62 melanoma
SN12C renal = system: SN12C renal
786-0 renal = system: 786-0 renal
RPMI-8226 leukemia = system: RPMI-8226 leukemia
KM12 colon = system: KM12 colon
SF-295 CNS = system: SF-295 CNS
HS 578T breast = system: HS 578T breast
HOP-62 NSCLC = system: HOP-62 NSCLC
SF-268 CNS = system: SF-268 CNS
HCC-2998 colon = system: HCC-2998 colon
LOX IMVI melanoma = system: LOX IMVI melanoma
HOP-92 NSCLC = system: HOP-92 NSCLC
ACHN renal = system: ACHN renal
SK-MEL-2 melanoma = system: SK-MEL-2 melanoma
NCI-H522 lung = system: NCI-H522 lung
SK-OV-3 ovarian = system: SK-OV-3 ovarian
EKVX NSCLC = system: EKVX NSCLC
SW-620 colon = system: SW-620 colon
DU-145 prostate = system: DU-145 prostate
HCT-15 colon = system: HCT-15 colon
NCI/ADR-RES ovarian = system: NCI/ADR-RES ovarian
OVCAR-4 ovarian = system: OVCAR-4 ovarian
UACC-257 melanoma = system: UACC-257 melanoma
A549 NSCLC = system: A549 NSCLC
K-562 leukemia = system: K-562 leukemia

COc1cc(OC)c2nc3occc3c(OC)c2c1
TGI (M14 melanoma): > 100 µM | TGI (MDA-N): > 100 µM | TGI (NCI-H460 lung): > 100 µM | TGI (RXF 393 renal): > 100 µM | TGI (BT-549 breast): > 100 µM | TGI (NCI-H226 lung): > 100 µM | TGI (OVCAR-8 ovarian): > 100 µM | TGI (OVCAR-5 ovarian): > 100 µM | TGI (NCI-H23 lung): > 100 µM | TGI (MOLT-4 leukemia): > 100 µM | TGI (HL-60(TB) leukemia): > 100 µM | TGI (SF-539 CNS): > 100 µM | TGI (SNB-19 CNS): > 100 µM | TGI (SK-MEL-28 melanoma): > 100 µM | TGI (HT29 colon): > 100 µM | TGI (MCF7 breast): > 100 µM | TGI (MALME-3M melanoma): > 100 µM | TGI (U251 CNS): > 100 µM | TGI (TK-10 renal): > 100 µM | TGI (UO-31 renal): > 100 µM | TGI (SK-MEL-5 melanoma): > 100 µM | TGI (CAKI-1 renal): > 100 µM | TGI (IGROV1 ovarian): > 100 µM | TGI (A498 renal): > 100 µM | TGI (OVCAR-3 ovarian): > 100 µM | TGI (SR leukemia): > 100 µM | TGI (CCRF-CEM leukemia): > 100 µM | TGI (PC-3 prostate): > 100 µM | TGI (MDA-MB-435): > 100 µM | TGI (HCT-116 colon): > 100 µM | TGI (SNB-75 CNS): > 100 µM | TGI (COLO 205 colon): > 100 µM | TGI (T-47D breast): > 100 µM | TGI (MDA-MB-231 breast): > 100 µM | TGI (UACC-62 melanoma): > 100 µM | TGI (SN12C renal): > 100 µM | TGI (786-0 renal): > 100 µM | TGI (RPMI-8226 leukemia): > 100 µM | TGI (KM12 colon): > 100 µM | TGI (SF-295 CNS): > 100 µM | TGI (HS 578T breast): > 100 µM | TGI (HOP-62 NSCLC): > 100 µM | TGI (SF-268 CNS): > 100 µM | TGI (HCC-2998 colon): > 100 µM | TGI (LOX IMVI melanoma): > 100 µM | TGI (HOP-92 NSCLC): > 100 µM | TGI (ACHN renal): > 100 µM | TGI (SK-MEL-2 melanoma): > 100 µM | TGI (NCI-H522 lung): > 100 µM | TGI (SK-OV-3 ovarian): > 100 µM | TGI (EKVX NSCLC): > 100 µM | TGI (SW-620 colon): > 100 µM | TGI (DU-145 prostate): > 100 µM | TGI (HCT-15 colon): > 100 µM | TGI (NCI/ADR-RES ovarian): > 100 µM | TGI (OVCAR-4 ovarian): > 100 µM | TGI (UACC-257 melanoma): > 100 µM | TGI (A549 NSCLC): > 100 µM

CCc1n[nH]c(=O)n1N1C(=O)C2CCCCC2C1=O (centres undefined)
TGI (M14 melanoma): > 100 µM | TGI (MDA-N): > 100 µM | TGI (RXF 393 renal): > 100 µM | TGI (BT-549 breast): > 100 µM | TGI (K-562 leukemia): > 100 µM | TGI (NCI-H226 lung): > 100 µM | TGI (OVCAR-8 ovarian): > 100 µM | TGI (OVCAR-5 ovarian): > 100 µM | TGI (NCI-H23 lung): > 100 µM | TGI (MOLT-4 leukemia): > 100 µM | TGI (HL-60(TB) leukemia): > 100 µM | TGI (SK-MEL-28 melanoma): > 100 µM | TGI (HT29 colon): > 100 µM | TGI (MCF7 breast): > 100 µM | TGI (MALME-3M melanoma): > 100 µM | TGI (U251 CNS): > 100 µM | TGI (TK-10 renal): > 100 µM | TGI (UO-31 renal): > 100 µM | TGI (SK-MEL-5 melanoma): > 100 µM | TGI (CAKI-1 renal): > 100 µM | TGI (IGROV1 ovarian): > 100 µM | TGI (A498 renal): > 100 µM | TGI (OVCAR-3 ovarian): > 100 µM | TGI (SR leukemia): > 100 µM | TGI (CCRF-CEM leukemia): > 100 µM | TGI (PC-3 prostate): > 100 µM | TGI (MDA-MB-435): > 100 µM | TGI (HCT-116 colon): > 100 µM | TGI (SNB-75 CNS): > 100 µM | TGI (COLO 205 colon): > 100 µM | TGI (T-47D breast): > 100 µM | TGI (MDA-MB-231 breast): > 100 µM | TGI (UACC-62 melanoma): > 100 µM | TGI (SN12C renal): > 100 µM | TGI (786-0 renal): > 100 µM | TGI (RPMI-8226 leukemia): > 100 µM | TGI (KM12 colon): > 100 µM | TGI (SF-295 CNS): > 100 µM | TGI (HS 578T breast): > 100 µM | TGI (HOP-62 NSCLC): > 100 µM | TGI (SF-268 CNS): > 100 µM | TGI (HCC-2998 colon): > 100 µM | TGI (LOX IMVI melanoma): > 100 µM | TGI (HOP-92 NSCLC): > 100 µM | TGI (ACHN renal): > 100 µM | TGI (SK-MEL-2 melanoma): > 100 µM | TGI (NCI-H522 lung): > 100 µM | TGI (SK-OV-3 ovarian): > 100 µM | TGI (EKVX NSCLC): > 100 µM | TGI (SW-620 colon): > 100 µM | TGI (DU-145 prostate): > 100 µM | TGI (HCT-15 colon): > 100 µM | TGI (NCI/ADR-RES ovarian): > 100 µM | TGI (OVCAR-4 ovarian): > 100 µM | TGI (UACC-257 melanoma): > 100 µM | TGI (A549 NSCLC): > 100 µM

CC1(C)COP(=S)(c2ccccn2)O[C@@H]1c1ccccc1 (some centres undefined)
TGI (M14 melanoma): > 100 µM | TGI (MDA-N): > 100 µM | TGI (NCI-H460 lung): > 100 µM | TGI (RXF 393 renal): > 100 µM | TGI (BT-549 breast): > 100 µM | TGI (K-562 leukemia): > 100 µM | TGI (NCI-H226 lung): > 100 µM | TGI (OVCAR-8 ovarian): > 100 µM | TGI (OVCAR-5 ovarian): > 100 µM | TGI (NCI-H23 lung): > 100 µM | TGI (MOLT-4 leukemia): > 100 µM | TGI (HL-60(TB) leukemia): > 100 µM | TGI (SNB-19 CNS): > 100 µM | TGI (SK-MEL-28 melanoma): > 100 µM | TGI (HT29 colon): > 100 µM | TGI (MCF7 breast): > 100 µM | TGI (MALME-3M melanoma): > 100 µM | TGI (U251 CNS): > 100 µM | TGI (TK-10 renal): > 100 µM | TGI (UO-31 renal): > 100 µM | TGI (SK-MEL-5 melanoma): 91.1 µM | TGI (CAKI-1 renal): > 100 µM | TGI (IGROV1 ovarian): > 100 µM | TGI (A498 renal): > 100 µM | TGI (SR leukemia): > 100 µM | TGI (CCRF-CEM leukemia): > 100 µM | TGI (PC-3 prostate): > 100 µM | TGI (MDA-MB-435): > 100 µM | TGI (HCT-116 colon): > 100 µM | TGI (SNB-75 CNS): > 100 µM | TGI (COLO 205 colon): > 100 µM | TGI (T-47D breast): > 100 µM | TGI (MDA-MB-231 breast): > 100 µM | TGI (UACC-62 melanoma): > 100 µM | TGI (SN12C renal): > 100 µM | TGI (786-0 renal): > 100 µM | TGI (KM12 colon): > 100 µM | TGI (SF-295 CNS): > 100 µM | TGI (HS 578T breast): > 100 µM | TGI (HOP-62 NSCLC): > 100 µM | TGI (SF-268 CNS): > 100 µM | TGI (HCC-2998 colon): > 100 µM | TGI (LOX IMVI melanoma): > 100 µM | TGI (HOP-92 NSCLC): > 100 µM | TGI (ACHN renal): > 100 µM | TGI (NCI-H522 lung): > 100 µM | TGI (SK-OV-3 ovarian): > 100 µM | TGI (EKVX NSCLC): > 100 µM | TGI (SW-620 colon): > 100 µM | TGI (DU-145 prostate): > 100 µM | TGI (HCT-15 colon): > 100 µM | TGI (NCI/ADR-RES ovarian): > 100 µM | TGI (OVCAR-4 ovarian): > 100 µM | TGI (UACC-257 melanoma): > 100 µM | TGI (A549 NSCLC): > 100 µM
